Experimental data published in patent US10524469B2, “Acetate derived compounds from geranylorcinol. synthesis process for obtaining said compounds and use of said compounds as antifungal against Botrytis cinerea” (UNIVERSIDAD TÉCNICA FEDERICO SANTA MARÍA, priority 2015, dated 2020).
Like-named read-outs stand apart in the source and are kept apart here.

Test system: Botrytis cinerea
Assay: Mycelial growth inhibition of B. cinerea, radial growth method in PDA
Format: cell-based
Settings: for inhibition at 50 ppm / inhibition at 150 ppm / inhibition at 250 ppm: Botrytis cinerea; for Activity compared with the positive control when encapsulated in Pluronic F-127 micelle (in words): encapsulated in polymeric Pluronic F-127 micelle
Procedure: 20-40 milligrams of each of compounds 1 to 8 were dissolved in 500 microliters of Ethanol to have a stock solution of each compound according to its molecular weight. The stock solution was diluted in 5 mL of water so as to obtain a new stock solution of 5,000 ppm; from which corresponding aliquots were taken to achieve a final concentration on each plate with 50, 150 and 250 ppm potato dextrose agar (PDA) culture medium.
The method used for the preparation of polymeric micelles, based on Polycaprolactone (MW: 3.409 g/mol) or Pluronic® F-127 (MW: 12,500 g/mol) corresponds to the direct dissolution method consisting of the addition of the polymer to water with stirring and at room temperature, until the polymer dissolves to give a clear aqueous solution. The amount of polymer and water is chosen so as to have a solution of a concentration of 1×10^−3 M of polymer chains.
For the preparation of a solution of 50 mL of Pluronic F-127, 0.63 g is used and for the case of polycaprolactone 0.17 g is used.
The physical encapsulation of the compounds in the polymeric micelles (1×10^−3 M) is carried out by the emulsion method. The compound is dissolved in a volatile solvent (dichloromethane) and […] the polymer solution added in 100 μL aliquots to complete 400 μL reaching a concentration of 0.101 M of compound. By stirring in a vortex and applying ultrasound a very homogeneous milky emulsion is formed. The organic solvent is then removed by evaporation by heating the emulsion at 50° C. in a system open to air. Upon removal of the solvent, a clear solution remains containing the polymer forming micelles and the non-polar compounds which have been encapsulated in the hydrophobic micro-domain provided by the core of these polymeric micelles.
Subsequently, the solution is diluted by adding polymer solution corresponding to a 1×10^−3 M concentration until the compound of interest reaches a stock concentration in the range of 625-1,250 ppm in the micelle to be applied to the plate. This dilution should be done by adding polymer solution so as to maintain the same concentration of micelles and vary only the concentration of active ingredient.
In order to determine the inhibition of mycelial growth of B. cinerea, both for the free state and encapsulated compounds, the radial growth method in potato dextrose agar (PDA) culture medium was used. The compounds of interest in both free and encapsulated form were added to the PDA at different concentrations of 50, 150 and 250 ppm at a temperature of 50° C. Once the PDA had been solidified, a 4-mm diameter disc was seeded with mycelium of the pathogen in the center of the petri dish. The experiment consists of a negative control which is a petri dish where PDA culture medium and 1% Ethanol were added, in the case of Negative Control for encapsulated compounds it consists in adding only the micelle (polycaprolactone or Pluronic […]) free in PDA. In addition, a positive control containing commercially available fungicide Captan in PDA culture medium is included at the same concentrations tested in both its free form and also a positive control of Captan in its encapsulated form. Each treatment consisted of three replicates (n=3 replicates/compound/concentration).
After 48 (free state) and 72 (encapsulated system) hours of incubation at 23° C. under a photoperiod of 16 light hours/8 darkness hours, the mycelial growth inhibition percentage (MGIP) was calculated by assessing the measurement of the diameter of the fungus growth around the disc to calculate the mycelial growth inhibition area. In this way, the mycelial growth inhibition percentage that was compared to the corresponding controls after 48 hours of incubation was determined.

[1] = 48 h, read-out: Mycelial inhibition percentage of Botrityscinerea in vitro, free compound, 50 ppm in PDA, 48 hours of incubation
[2] = 48 h, read-out: Mycelial inhibition percentage of Botrityscinerea in vitro, free compound, 150 ppm in PDA, 48 hours of incubation
[3] = 48 h, read-out: Mycelial inhibition percentage of Botrityscinerea in vitro, free compound, 250 ppm in PDA, 48 hours of incubation
[4] = 72 h, read-out: Mycelial inhibition percentage of Botrityscinerea in vitro, encapsulated in Polycaprolactone (Diblock) micelles, 50 ppm, 72 hours
[5] = 72 h, read-out: Mycelial inhibition percentage of Botrityscinerea in vitro, encapsulated in Polycaprolactone (Diblock) micelles, 150 ppm, 72 hours
[6] = 72 h, read-out: Mycelial inhibition percentage of Botrityscinerea in vitro, encapsulated in Polycaprolactone (Diblock) micelles, 250 ppm, 72 hours
[7] = 72 h, read-out: Mycelial inhibition percentage of Botrityscinerea in vitro, encapsulated in Pluronic F-127 (Triblock) micelles, 50 ppm, 72 hours
[8] = 72 h, read-out: Mycelial inhibition percentage of Botrityscinerea in vitro, encapsulated in Pluronic F-127 (Triblock) micelles, 150 ppm, 72 hours
[9] = 72 h, read-out: Mycelial inhibition percentage of Botrityscinerea in vitro, encapsulated in Pluronic F-127 (Triblock) micelles, 250 ppm, 72 hours
[10] = encapsulated in Pluronic F-127 (Triblock) micelles, 50 ppm, 72 hours

Structure (SMILES)	inhibition at 50 ppm [1] [%]	inhibition at 150 ppm [2] [%]	inhibition at 250 ppm [3] [%]	inhibition at 50 ppm [4] [%]	inhibition at 150 ppm [5] [%]	inhibition at 250 ppm [6] [%]	inhibition at 50 ppm [7] [%]	inhibition at 150 ppm [8] [%]	inhibition at 250 ppm [9] [%]	Mycelial inhibition percentage of Botrityscinerea in vitro [10] [%]	Activity compared with the positive control when encapsulated in Pluronic F-127 micelle (in words)	other results
CC(=O)Oc1cc(C)cc(OC(C)=O)c1C/C=C(\C)CCC=C(C)C [Formula 7]	8	51	82	32	35	59	–	–	–	–	–	–
CC(C)=CCC/C(C)=C/Cc1c(C)cc(O)cc1O [Formula 1]	0	25	75	37	61	73	–	–	–	–	–	Effect on the mycelium of the pathogen when encapsulated in polycaprolactone micelles (in words): slightly improved
CC(=O)Oc1cc(C)c(C/C=C(\C)CCC=C(C)C)c(OC(C)=O)c1C/C=C(\C)CCC=C(C)C [Formula 6]	5	69	97	10	31	50	81 to 99	99	99	93	equal to the activity of the positive control	–
CC(C)=CCC/C(C)=C/Cc1c(O)cc(O)c(C/C=C(\C)CCC=C(C)C)c1C [Formula 4]	12	56	83	93	94	97	81 to 99	92	96	82	equal to the activity of the positive control	–
CC(C)=CCC/C(C)=C/Cc1c(C)cc(O)c(C/C=C(\C)CCC=C(C)C)c1O [Formula 2]	25	61	93	16	36	37	81 to 99	91	96	85	equal to the activity of the positive control	–
CC(C)=CCC/C(C)=C/Cc1c(O)cc(C)cc1O [Formula 3]	37	65	82	9	32	42	–	–	–	–	–	Effect on the mycelium of the pathogen when encapsulated in polycaprolactone micelles (in words): inactive
CC(=O)Oc1cc(C)c(C/C=C(\C)CCC=C(C)C)c(OC(C)=O)c1 [Formula 5]	–	–	–	–	–	–	–	–	–	–	–	inhibition at 50 ppm (encapsulated in Polycaprolactone (Diblock) micelles, 50 ppm, 72 hours, read-out: Mycelial inhibition percentage of Botrityscinerea in vitro): 16%; inhibition at 150 ppm (encapsulated in Polycaprolactone (Diblock) micelles, 150 ppm, 72 hours, read-out: Mycelial inhibition percentage of Botrityscinerea in vitro): 39%; inhibition at 250 ppm (encapsulated in Polycaprolactone (Diblock) micelles, 250 ppm, 72 hours, read-out: Mycelial inhibition percentage of Botrityscinerea in vitro): 80%; inhibition at 50 ppm (free compound, 50 ppm in PDA, 48 hours of incubation, read-out: Mycelial inhibition percentage of Botrityscinerea in vitro): 24%; inhibition at 150 ppm (free compound, 150 ppm in PDA, 48 hours of incubation, read-out: Mycelial inhibition percentage of Botrityscinerea in vitro): 55%; inhibition at 250 ppm (free compound, 250 ppm in PDA, 48 hours of incubation, read-out: Mycelial inhibition percentage of Botrityscinerea in vitro): 78%
O=C1C2CC=CCC2C(=O)N1SC(Cl)(Cl)Cl (stereo not shown) [C+ (positive control), Captan, reference compound]	–	–	–	–	–	–	–	–	–	98	–	Mycelial inhibition percentage of Botrityscinerea in vitro (encapsulated in Pluronic F-127 (Triblock) micelles, 150 ppm, 72 hours): 99%; Mycelial inhibition percentage of Botrityscinerea in vitro (encapsulated in Pluronic F-127 (Triblock) micelles, 250 ppm, 72 hours): 99%; Mycelial inhibition percentage of Botrityscinerea in vitro (encapsulated in Polycaprolactone (Diblock) micelles, 50 ppm, 72 hours): 93%; Mycelial inhibition percentage of Botrityscinerea in vitro (encapsulated in Polycaprolactone (Diblock) micelles, 150 ppm, 72 hours): 99%; Mycelial inhibition percentage of Botrityscinerea in vitro (encapsulated in Polycaprolactone (Diblock) micelles, 250 ppm, 72 hours): 99%; Mycelial inhibition percentage of Botrityscinerea in vitro (free compound, 50 ppm in PDA, 48 hours of incubation): 87%; Mycelial inhibition percentage of Botrityscinerea in vitro (free compound, 150 ppm in PDA, 48 hours of incubation): 94%; Mycelial inhibition percentage of Botrityscinerea in vitro (free compound, 250 ppm in PDA, 48 hours of incubation): 94%
CC(=O)Oc1cc(OC(C)=O)c(C/C=C(\C)CCC=C(C)C)c(C)c1C/C=C(\C)CCC=C(C)C [Formula 8]	11	54	85	0	36	36	81 to 99	99	99	93	equal to the activity of the positive control	–
